{
  "source": "paper PMC5129982",
  "about": "“Screen-identified selective inhibitor of lysine demethylase 5A blocks cancer cell growth and drug resistance” (Oncotarget, 2016)",
  "key": {"FLAG-KDM5C": {"biological_target": "T1, FLAG-KDM5C (Homo sapiens, UniProt P41229)", "T1 construct": "Full-length FLAG-KDM5B, FLAG-KDM5C, and His-FLAG-KDM6A production was detailed previously; FLAG (N); made in house", "T1 sequence (P41229 whole entry)": "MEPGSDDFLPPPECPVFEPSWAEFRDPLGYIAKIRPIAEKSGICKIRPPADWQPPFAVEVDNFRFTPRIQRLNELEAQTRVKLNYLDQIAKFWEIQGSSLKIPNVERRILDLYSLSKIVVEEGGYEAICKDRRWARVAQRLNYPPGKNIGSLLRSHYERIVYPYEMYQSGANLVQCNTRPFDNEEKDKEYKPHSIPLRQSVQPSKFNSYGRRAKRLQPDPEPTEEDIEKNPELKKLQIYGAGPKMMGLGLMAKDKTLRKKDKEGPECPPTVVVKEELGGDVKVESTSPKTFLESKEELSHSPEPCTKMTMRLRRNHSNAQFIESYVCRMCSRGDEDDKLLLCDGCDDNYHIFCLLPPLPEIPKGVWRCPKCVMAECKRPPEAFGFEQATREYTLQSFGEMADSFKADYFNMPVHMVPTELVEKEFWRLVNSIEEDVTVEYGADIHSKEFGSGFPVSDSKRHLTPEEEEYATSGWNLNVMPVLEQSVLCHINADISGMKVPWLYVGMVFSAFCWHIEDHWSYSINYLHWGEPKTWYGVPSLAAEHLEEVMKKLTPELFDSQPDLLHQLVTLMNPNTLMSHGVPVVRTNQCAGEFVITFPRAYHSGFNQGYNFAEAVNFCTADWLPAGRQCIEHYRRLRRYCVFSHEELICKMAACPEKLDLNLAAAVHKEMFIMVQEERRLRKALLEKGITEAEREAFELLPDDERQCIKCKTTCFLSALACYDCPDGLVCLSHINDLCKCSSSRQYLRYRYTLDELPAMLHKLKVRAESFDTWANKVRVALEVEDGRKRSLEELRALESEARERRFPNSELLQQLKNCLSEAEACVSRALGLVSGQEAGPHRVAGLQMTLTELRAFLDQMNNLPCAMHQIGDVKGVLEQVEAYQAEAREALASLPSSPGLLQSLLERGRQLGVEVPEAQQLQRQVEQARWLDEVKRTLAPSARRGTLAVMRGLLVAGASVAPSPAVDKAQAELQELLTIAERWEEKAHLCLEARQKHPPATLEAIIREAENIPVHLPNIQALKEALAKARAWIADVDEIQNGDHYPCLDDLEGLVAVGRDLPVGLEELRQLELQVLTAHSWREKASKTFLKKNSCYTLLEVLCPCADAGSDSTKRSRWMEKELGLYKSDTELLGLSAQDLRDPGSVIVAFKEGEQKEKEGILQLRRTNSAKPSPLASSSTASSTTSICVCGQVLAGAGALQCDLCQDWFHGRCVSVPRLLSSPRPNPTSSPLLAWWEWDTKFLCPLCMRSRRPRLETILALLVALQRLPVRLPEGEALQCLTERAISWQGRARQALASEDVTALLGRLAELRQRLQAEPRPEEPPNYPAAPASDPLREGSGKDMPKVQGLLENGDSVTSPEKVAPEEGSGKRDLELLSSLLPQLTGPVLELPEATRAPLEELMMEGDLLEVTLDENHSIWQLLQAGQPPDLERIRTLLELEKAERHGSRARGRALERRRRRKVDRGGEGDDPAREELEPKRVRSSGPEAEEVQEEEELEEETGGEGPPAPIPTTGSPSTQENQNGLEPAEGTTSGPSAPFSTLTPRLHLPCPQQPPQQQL", "experiment": "AlphaScreen KDM5C demethylation assay", "format": "biochemical", "protocol": "(§1) Histone demethylase assays were performed as described previously, with the exception of all enzyme reactions containing 125 μM α-KG. Enzymes were used at the following approximate concentrations in validation experiments, chosen based on their activity in AlphaScreen assays: 19 nM FLAG-KDM5A, 15 nM FLAG-KDM5B, 6 nM FLAG-KDM5C, 29 nM His-FLAG-KDM6A, and 16 nM FLAG-KDM6B. 24 nM FLAG-KDM5A was used for Km determination experiments. Reactions were carried out for 1 hour, or were stopped by addition of 30 mM EDTA every 5 minutes for determining enzyme kinetics. Km values were calculated using the Michaelis-Menten non-linear regression analysis on GraphPad Prism 6.0 software. The concentration of DMSO in demethylation reactions was 0.05%. For reactions with catalase, catalase (Sigma C30) or an equal volume of dilution buffer was added to the peptide-containing buffer before addition of the demethylase. The final concentration of catalase in the reactions was 0.01 mg/ml.\n(§2) The AlphaScreen general IgG (protein A) detection kit from PerkinElmer Life Sciences was used as described previously. The luminescence emission was recorded at 570 nm using the AlphaScreen optic module on a Pherastar (BMG Labtech) or Envision (PerkinElmer Life Sciences) microplate reader."}, "His-FLAG-KDM6A (UTX)": {"biological_target": "T2, His-FLAG-KDM6A (UTX) (Homo sapiens, UniProt O15550)", "T2 construct": "Full-length FLAG-KDM5B, FLAG-KDM5C, and His-FLAG-KDM6A production was detailed previously; His (N); FLAG (N); made in house", "T2 sequence (O15550 whole entry)": "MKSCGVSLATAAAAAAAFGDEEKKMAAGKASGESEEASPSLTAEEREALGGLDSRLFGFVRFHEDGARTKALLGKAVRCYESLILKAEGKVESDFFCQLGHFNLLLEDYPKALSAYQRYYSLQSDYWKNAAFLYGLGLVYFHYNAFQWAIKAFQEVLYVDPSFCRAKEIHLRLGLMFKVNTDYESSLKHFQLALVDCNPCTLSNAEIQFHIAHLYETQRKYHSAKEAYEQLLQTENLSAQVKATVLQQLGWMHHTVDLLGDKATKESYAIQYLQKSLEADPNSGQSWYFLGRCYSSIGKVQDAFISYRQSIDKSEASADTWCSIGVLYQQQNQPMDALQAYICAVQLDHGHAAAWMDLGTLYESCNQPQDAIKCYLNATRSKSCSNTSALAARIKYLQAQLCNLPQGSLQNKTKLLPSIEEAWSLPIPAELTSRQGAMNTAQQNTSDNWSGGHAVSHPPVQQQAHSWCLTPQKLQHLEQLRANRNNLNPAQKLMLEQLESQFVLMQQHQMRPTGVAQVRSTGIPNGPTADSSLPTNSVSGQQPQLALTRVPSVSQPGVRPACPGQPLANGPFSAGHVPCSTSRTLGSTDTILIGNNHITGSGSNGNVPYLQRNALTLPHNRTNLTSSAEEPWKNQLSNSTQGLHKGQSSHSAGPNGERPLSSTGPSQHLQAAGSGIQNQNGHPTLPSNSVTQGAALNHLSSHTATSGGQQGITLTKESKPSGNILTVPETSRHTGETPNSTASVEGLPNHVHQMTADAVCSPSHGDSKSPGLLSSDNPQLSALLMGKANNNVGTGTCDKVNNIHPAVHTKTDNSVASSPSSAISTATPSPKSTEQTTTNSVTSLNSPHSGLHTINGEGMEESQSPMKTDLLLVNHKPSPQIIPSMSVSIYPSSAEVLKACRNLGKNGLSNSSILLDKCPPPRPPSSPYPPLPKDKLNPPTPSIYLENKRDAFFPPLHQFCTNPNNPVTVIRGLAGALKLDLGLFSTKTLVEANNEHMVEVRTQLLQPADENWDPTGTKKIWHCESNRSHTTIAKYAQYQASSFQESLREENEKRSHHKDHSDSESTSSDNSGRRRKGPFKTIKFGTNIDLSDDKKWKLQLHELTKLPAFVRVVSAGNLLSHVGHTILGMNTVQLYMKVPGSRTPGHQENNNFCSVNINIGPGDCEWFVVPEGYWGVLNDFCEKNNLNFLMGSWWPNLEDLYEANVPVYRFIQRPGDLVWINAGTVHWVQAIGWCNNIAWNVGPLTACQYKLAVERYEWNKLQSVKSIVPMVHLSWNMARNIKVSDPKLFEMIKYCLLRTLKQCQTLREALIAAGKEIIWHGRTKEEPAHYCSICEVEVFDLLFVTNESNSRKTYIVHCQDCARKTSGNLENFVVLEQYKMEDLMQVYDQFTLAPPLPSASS", "experiment": "AlphaScreen KDM6A demethylation assay", "format": "biochemical", "protocol": "as §1, §2"}, "[1]": {"tested_on": "H3K4 methylation in HeLa cells", "experiment": "Western blot of global H3K4 methylation, HeLa", "format": "cell-based, human", "conditions": "for H3K4me3 Fold (H3K4me3/Total H3, normalized to DMSO): 48 hr", "protocol": "(§3) Cells were lysed as described previously. Histones were separated by centrifugation, resuspended in Laemmeli buffer, and sonicated. Protein concentration of cell lysates was measured by Bradford assay. Samples in Laemmeli buffer were boiled 10 minutes at 95°C and loaded onto 7% (whole cell lysates) or 18% (histones) SDS-PAGE gels. Membranes were blocked in 4% non-fat milk in Tris-buffered saline with 0.05% Tween (TBS-T) and incubated with primary antibodies in the same buffer or 5% bovine serum albumin in TBS-T overnight at 4°C. Membranes were incubated with secondary anti-rabbit or anti-mouse antibodies for one hour at room temperature. Blots were visualized by Thermo Scientific Pierce ECL Western Blotting Substrate (32106) or EMD Millipore Immobilon Western Chemiluminescent HRP Substrate (WBKLS0100) on film. Signal was quantified using ImageJ software."}, "[2]": {"tested_on": "H3K4 methylation in MCF7 cells", "experiment": "Western blot of global H3K4 methylation, MCF7", "format": "cell-based, human", "conditions": "48 hr", "protocol": "as §3"}, "[3]": {"tested_on": "H3K4 methylation in MDA-MB-231 cells", "experiment": "Western blot of global H3K4 methylation, MDA-MB-231", "format": "cell-based, human", "conditions": "MDA-MB-231, 72 hr treatment", "protocol": "as §3"}, "[4]": {"tested_on": "H3K4 methylation in MCF10A cells", "experiment": "Western blot of global H3K4 methylation, MCF10A", "format": "cell-based, human", "conditions": "72 hr treatment", "protocol": "as §3"}, "ZR-75-1 cells": {"tested_on": "ZR-75-1 cells", "experiment": "WST-1 proliferation assay, ZR-75-1", "format": "cell-based, human", "conditions": "ZR-75-1, 5 days of treatment", "protocol": "WST-1 reagent from Roche Applied Sciences (11644807001) was used to measure cell number before drug addition and after 3 or 5 days of growth as described previously. Cells were seeded in 96-well plates at the following number of cells per well: HeLa (2000), MCF7 (2000), ZR-75-1 (1000), MCF10A (1000), MDA-MB-231(5000). DMSO was used at 0.1%. Relative absorbance was calculated by subtracting the average background (media only) signal, dividing by the average signal on day 0, and then dividing by the average day 5/day 0 ratio for the DMSO controls. Significance was calculated by unpaired, two-tailed student's t-test using GraphPad Prism 6.0 software."}, "HeLa cells": {"tested_on": "HeLa cells", "experiment": "Colony formation assay, HeLa", "format": "cell-based, human", "conditions": "two-week treatment, 50 or 100 μM", "protocol": "(§4) Cells were seeded in 6-well plates at low density: HeLa, MCF7, BT474, and PC9 cells at 1000, 2000, 2500, and 2000 cells/well respectively. Media containing the prescribed drugs or 0.1% DMSO was replaced every 3 days. Trastuzumab was used at 5 μg/ml. Gefitinib was used at 2 μM. YUKA1 was used at 50 or 100 μM. Doxycycline was used at 1 μg/ml for 3 days. After 7–42 days depending on the rate of cell growth, cells were fixed in 4% para-formaldehyde in phosphate-buffered saline for 10 minutes rocking at room temperature. They were incubated in 0.05% crystal violet in double-distilled water for 30 minutes rocking at room temperature, washed with water, and dried 24 hours before photographing. ColonyArea, a plugin for ImageJ software, was used for quantification. Unpaired, two-tailed student's t-test calculated using GraphPad Prism 6.0 software was used to determine significance."}, "PC9 cells": {"tested_on": "PC9 cells", "experiment": "Colony formation assay, PC9 (gefitinib tolerance)", "format": "cell-based, human", "protocol": "as §4"}, "BT474 cells": {"tested_on": "BT474 cells", "experiment": "Colony formation assay, BT474 (trastuzumab tolerance)", "format": "cell-based, human", "protocol": "as §4"}},
  "data": [
    {"smiles": "C=CCOc1c(CNn2cnnc2S)cccc1OC", "note": "[YUKA1, 4-([2-(allyloxy)-3-methoxybenzyl]amino)-4H-1,2,4-triazole-3-thiol]", "values": [
      {"measurement": "fold less active against KDM5C (than KDM5A)", "setting": "FLAG-KDM5C", "result": "~ 3 fold"},
      {"measurement": "IC50", "setting": "FLAG-KDM5C; AlphaScreen", "result": 7.12, "unit": "µM"},
      {"measurement": "IC50", "setting": "His-FLAG-KDM6A (UTX)", "result": "> 50", "unit": "µM"},
      {"measurement": "H3K4me2 and H3K4me1 levels", "setting": "[1]; HeLa", "result": "increased"},
      {"measurement": "cell activity by global H3K4 methylation changes", "setting": "[1]; HeLa and MCF7 cells, western blot", "result": "cell-active"},
      {"measurement": "H3K4me3 Fold (H3K4me3/Total H3, normalized to DMSO)", "setting": "[1]; HeLa, 50 μM", "result": 3.0},
      {"measurement": "H3K4me3 Fold (H3K4me3/Total H3, normalized to DMSO)", "setting": "[1]; HeLa, 100 μM", "result": 3.2},
      {"measurement": "global H3K4me3 levels", "setting": "[1]; HeLa, 48 hour treatment", "result": "dose-dependent increase"},
      {"measurement": "H3K4me3 Fold (H3K4me3/Total H3, normalized to DMSO)", "setting": "[2]; MCF7, 50 μM", "result": 0.8},
      {"measurement": "H3K4me3 Fold (H3K4me3/Total H3, normalized to DMSO)", "setting": "[2]; MCF7, 100 μM", "result": 0.8},
      {"measurement": "H3K4 methylation", "setting": "[3]", "result": "only minor changes"},
      {"measurement": "H3K4 methylation levels", "setting": "[4]", "result": "did not affect H3K4 methylation levels"},
      {"measurement": "cell proliferation", "setting": "ZR-75-1 cells", "result": "decreased cell proliferation"},
      {"measurement": "number of colonies formed compared to DMSO", "setting": "HeLa cells", "result": "significantly reduced"},
      {"measurement": "cell growth, compound alone", "setting": "PC9 cells; PC9, 7 days", "result": "not significantly affected"},
      {"measurement": "colony formation during long-term gefitinib treatment", "setting": "PC9 cells; PC9, plus 2 μM gefitinib, 35 days", "result": "fewer YUKA1-treated cells formed colonies"},
      {"measurement": "cell growth, compound alone", "setting": "BT474 cells; BT474, 35 days", "result": "not changed"},
      {"measurement": "emergence of colonies under trastuzumab", "setting": "BT474 cells; BT474, plus 5 μg/ml trastuzumab, 42 days", "result": "significantly less"}
    ]}
  ]
}
